Laboratory results as given in ChEMBL document CHEMBL1146831, “Binding of a homologous series of anthraquinones to DNA” (Bioorg Med Chem Lett, 2004).

Legend:
Nucleic Acid [1] = assay: Binding constant towards AT-rich calf thymus DNA hairpin; assay type: nucleic-acid assay; details: Bos taurus
Nucleic Acid [2] = assay: Binding constant towards GC-rich calf thymus DNA hairpin; assay type: nucleic-acid assay; details: Bos taurus

| K (Nucleic Acid [1]) [M⁻¹] | K (Nucleic Acid [2]) [M⁻¹] | Compound |
| --- | --- | --- |
| 760000 | 310000 | COCCCNCCC(=O)Nc1ccc2c(c1)C(=O)c1ccc(NC(=O)CCNCCCOC)cc1C2=O |
| 250000 | 110000 | COCCOCCOCCCNCCC(=O)Nc1ccc2c(c1)C(=O)c1ccc(NC(=O)CCNCCCOCCOCCOC)cc1C2=O |
| 190000 | 90000 | COCCOCCOCCOCCCNCCC(=O)Nc1ccc2c(c1)C(=O)c1ccc(NC(=O)CCNCCCOCCOCCOCCOC)cc1C2=O |
| 550000 | 220000 | COCCOCCCNCCC(=O)Nc1ccc2c(c1)C(=O)c1ccc(NC(=O)CCNCCCOCCOC)cc1C2=O |
